Assay results from US6534480B2, “Compositions for increasing energy in vivo” (Bioenergy Inc., priority 1999, dated 2003).

What was measured:
[1] = tested on: adenine salvage pathway; assay: Adenine salvage (formation of ATP) in perfused resting rat plantaris muscle, ribose dose response; assay type: in vivo, Sprague-Dawley rats; conditions: for salvage of adenine (formation of ATP), Observed: 30 minutes
Description: It has been theorized but not objectively shown that ribose, via PRPP synthesis, increases the rate of ATP synthesis via the nucleotide salvage pathway. […] The muscle was perfused with reconstituted blood medium at ˜40 ml/min, providing tissue perfusion of approximately 0.65 ml/min. Varying concentrations of D-ribose were added to the perfusate to bring the concentration to 0.156 mM, 0.5 mM, 1.58 mM, 5.0 mM and 15.0 mM. The muscle was perfused for 30 minutes. A minimum of two rats was used for analysis at each dose of ribose tested. Following perfusion, muscle sections were quickly dissected from the limb and freeze-clamped with aluminum tongs chilled in liquid nitrogen. Muscle sections were lyophilized and reconstituted in distilled water for subsequent-separation of adenine nucleotides by reverse-phase high pressure liquid chromatography. Results are expressed as salvage of adenine (i.e., formation of ATP) in nanomoles salvaged per gram wet weight of muscle per hour (nM/gm/hr).

[2] = tested on: ATP; conditions: heart recovering from ischemia, intravenous perfusion; cited from earlier work
[3] = Exercise induced angina, single patient with coronary artery disease; assay type: in vivo, human
From the text: A patient with a history of coronary artery disease, status post triple coronary artery bypass, experienced exercise induced angina. Their present medications are: enalapril (an angiotensin converting enzyme inhibitor), carvedilol (a β blocking agent), nitroglycerine patch and nitroglycerine tablets sublingual as needed. […] The patient performed poorly on two stress tests. Their exercise regimen consisted of a daily walk. Due to the development of angina, the patient was able to walk less than one mile per day, at which point they took sublingual nitroglycerine. The patient was given oral D-ribose dissolved in about 250 cc. of water. Over a six-month period, the patient received intermittent doses of 5-10 grams per day of D-ribose. […] When the ribose was discontinued, their pre-ribose, anginal-inducing exercise state recurred, which necessitated the use of supplemental oral nitroglycerine.

[4] = Cycle sprint power output in healthy fit subjects (Ribose Athlete Study); assay type: in vivo, human; conditions: for Mean Power Per Kilogram, Average / Peak Power Per Kilogram, Average / Total Power Per Kilogram, Average: average of sessions 1-6
Description: Four healthy, fit subjects in the age range 24 to 26 years of age were tested. The group was selected to be homogeneous regarding fitness level, gender and mean age with no known metabolic, neuronal, endocrine or cardiopulmonary disorders. All were capable of or had experience with cycling. The study protocol included four phases: (1) an initial baseline phase consisting of no exercise session; (2) a loading phase including three days of administration of either D-ribose or placebo (glucose) three times per day; (3) a training phase of three days employing exercise sessions characterized by serial (N=6) bouts of short (10 second) high-intensity cycle sprints at 7% body mass resistance with 50 second rest periods between sprints twice per day (morning and afternoon), and (4) a recovery phase for a period of 48 hours after the final training session. FIG. 1 is a diagram of a single cycle sprint bout. Two subjects were randomly selected for inclusion into the placebo or ribose group. Ribose or glucose was administered orally in a 250 ml iso-osmotic solution containing 10.0 grams of either ribose or placebo three times per day for three days preceding training (loading phase) and for three days during training (training phase). One-half liter isotonic electrolyte solution was given immediately post exercise and again 30 minutes later to avoid dehydration.

[5] = cited from earlier work
[6] = ribose group mean, sprint session 1
[7] = ribose group mean, sprint session 2
[8] = ribose group mean, sprint session 3
[9] = ribose group mean, sprint session 4
[10] = ribose group mean, sprint session 5
[11] = ribose group mean, sprint session 6

O=C[C@H](O)[C@H](O)[C@H](O)CO [Ribose, D-ribose]
adenine salvage relative to zero mM ribose ([1]; 0.158 mM ribose): doubles
salvage of adenine, Saturation Kinetics with Base ([1]; 0.158 mM ribose): 85.82 nM/gm/hr
salvage of adenine (formation of ATP), Observed ([1]; 0.158 mM ribose in perfusate): 113.0 nM/gm/hr
salvage of adenine, Saturation Kinetics with Base ([1]; 0.500 mM ribose): 118.68 nM/gm/hr
salvage of adenine (formation of ATP), Observed ([1]; 0.500 mM ribose in perfusate): 110.0 nM/gm/hr
salvage of adenine, Saturation Kinetics with Base ([1]; 1.000 mM ribose): 154.12 nM/gm/hr
salvage of adenine, Saturation Kinetics with Base ([1]; 1.580 mM ribose): 183.51 nM/gm/hr
salvage of adenine (formation of ATP), Observed ([1]; 1.580 mM ribose in perfusate): 188.5 nM/gm/hr
salvage of adenine, Saturation Kinetics with Base ([1]; 2.000 mM ribose): 199.74 nM/gm/hr
salvage of adenine, Saturation Kinetics with Base ([1]; 2.500 mM ribose): 215.29 nM/gm/hr
salvage of adenine, Saturation Kinetics with Base ([1]; 3.000 mM ribose): 227.85 nM/gm/hr
salvage of adenine, Saturation Kinetics with Base ([1]; 5.000 mM ribose): 260.68 nM/gm/hr
salvage of adenine (formation of ATP), Observed ([1]; 5.000 mM ribose in perfusate): 250.0 nM/gm/hr
salvage of adenine (formation of ATP), Observed ([1]; 5.000 mM ribose in perfusate, listed as ribose): 250 nM/gm/hr
salvage of adenine, Saturation Kinetics with Base ([1]; 15.000 mM ribose): 310.37 nM/gm/hr
salvage of adenine (formation of ATP), Observed ([1]; 15.000 mM ribose in perfusate): 315.5 nM/gm/hr
recovery of ATP levels [2]: enhanced
patient's subjective evaluation of the ribose treatment ([3]; oral D-ribose 5-10 grams per day): much less angina pain
exercise tolerance (daily walk) without nitroglycerine ([3]; oral D-ribose 5-10 grams per day intermittent over six months, before: less than one mile per day): two miles per day
Mean Power Per Kilogram, Average ([4]; ribose group mean): 8.2 Watts
Peak Power Per Kilogram, Average ([4]; ribose group mean): 9.6 Watts
Total Power Per Kilogram, Average ([4]; ribose group mean): 81.6
Peak Power Per Kilogram [4, 6]: 8.9 Watts
Total Power Per Kilogram [4, 6]: 79.3
Mean Power Per Kilogram ([4]; ribose group mean, sprint session 1, 10.0 grams oral three times per day): 7.8 Watts
Mean Power Per Kilogram [4, 7]: 8.4 Watts
Peak Power Per Kilogram [4, 7]: 9.7 Watts
Total Power Per Kilogram [4, 7]: 83.3
Mean Power Per Kilogram [4, 8]: 8.5 Watts
Peak Power Per Kilogram [4, 8]: 10.0 Watts
Total Power Per Kilogram [4, 8]: 84.2
Mean Power Per Kilogram [4, 9]: 8.3 Watts
Peak Power Per Kilogram [4, 9]: 9.9 Watts
Total Power Per Kilogram [4, 9]: 82.8
Mean Power Per Kilogram [4, 10]: 8.2 Watts
Peak Power Per Kilogram [4, 10]: 9.8 Watts
Total Power Per Kilogram [4, 10]: 81.8
Mean Power Per Kilogram [4, 11]: 7.8 Watts
Peak Power Per Kilogram [4, 11]: 9.3 Watts
Total Power Per Kilogram [4, 11]: 77.9
Mean Power Per Kilogram, average relative to placebo (100.0%) ([4]; ribose group vs placebo group): 109.0%
Peak Power Per Kilogram, average relative to placebo (100.0%) ([4]; ribose group vs placebo group): 109.9%
Total Power Per Kilogram, average relative to placebo (100.0%) ([4]; ribose group vs placebo group): 109.5%
increase in performance ([4]; ribose vs placebo, Tables II to IV): 9%
Mean Power Per Kilogram, Average ([4]; subject 2R): 7.5 Watts
Peak Power Per Kilogram, Average ([4]; subject 2R): 8.8 Watts
Total Power Per Kilogram, Average ([4]; subject 2R): 75.1
Mean Power Per Kilogram ([4]; subject 2R, sprint session 1): 6.9 Watts
Peak Power Per Kilogram ([4]; subject 2R, sprint session 1): 7.9 Watts
Total Power Per Kilogram ([4]; subject 2R, sprint session 1): 71.9
Mean Power Per Kilogram ([4]; subject 2R, sprint session 2): 7.5 Watts
Peak Power Per Kilogram ([4]; subject 2R, sprint session 2): 8.8 Watts
Total Power Per Kilogram ([4]; subject 2R, sprint session 2): 74.7
Mean Power Per Kilogram ([4]; subject 2R, sprint session 3): 7.8 Watts
Peak Power Per Kilogram ([4]; subject 2R, sprint session 3): 9.2 Watts
Total Power Per Kilogram ([4]; subject 2R, sprint session 3): 77.1
Mean Power Per Kilogram ([4]; subject 2R, sprint session 4): 7.6 Watts
Peak Power Per Kilogram ([4]; subject 2R, sprint session 4): 9.0 Watts
Total Power Per Kilogram ([4]; subject 2R, sprint session 4): 75.6
Mean Power Per Kilogram ([4]; subject 2R, sprint session 5): 7.9 Watts
Peak Power Per Kilogram ([4]; subject 2R, sprint session 5): 9.4 Watts
Total Power Per Kilogram ([4]; subject 2R, sprint session 5): 78.1
Mean Power Per Kilogram ([4]; subject 2R, sprint session 6): 7.4 Watts
Peak Power Per Kilogram ([4]; subject 2R, sprint session 6): 8.7 Watts
Total Power Per Kilogram ([4]; subject 2R, sprint session 6): 73.4
Mean Power Per Kilogram, Average ([4]; subject 3R): 8.8 Watts
Peak Power Per Kilogram, Average ([4]; subject 3R): 10.3 Watts
Total Power Per Kilogram, Average ([4]; subject 3R): 88.0
Mean Power Per Kilogram ([4]; subject 3R, sprint session 1): 8.7 Watts
Peak Power Per Kilogram ([4]; subject 3R, sprint session 1): 9.8 Watts
Total Power Per Kilogram ([4]; subject 3R, sprint session 1): 86.8
Mean Power Per Kilogram ([4]; subject 3R, sprint session 2): 9.2 Watts
Peak Power Per Kilogram ([4]; subject 3R, sprint session 2): 10.6 Watts
Total Power Per Kilogram ([4]; subject 3R, sprint session 2): 91.9
Mean Power Per Kilogram ([4]; subject 3R, sprint session 3): 9.1 Watts
Peak Power Per Kilogram ([4]; subject 3R, sprint session 3): 10.7 Watts
Total Power Per Kilogram ([4]; subject 3R, sprint session 3): 91.3
Mean Power Per Kilogram ([4]; subject 3R, sprint session 4): 9.0 Watts
Peak Power Per Kilogram ([4]; subject 3R, sprint session 4): 10.7 Watts
Total Power Per Kilogram ([4]; subject 3R, sprint session 4): 90.0
Mean Power Per Kilogram ([4]; subject 3R, sprint session 5): 8.5 Watts
Peak Power Per Kilogram ([4]; subject 3R, sprint session 5): 10.1 Watts
Total Power Per Kilogram ([4]; subject 3R, sprint session 5): 85.4
Mean Power Per Kilogram ([4]; subject 3R, sprint session 6): 8.2 Watts
Peak Power Per Kilogram ([4]; subject 3R, sprint session 6): 9.9 Watts
Total Power Per Kilogram ([4]; subject 3R, sprint session 6): 82.5
symptoms of MAD-deficient patients ([5]; MAD-deficient patients): relieved
effect in normal volunteers ([5]; normal volunteers): no beneficial effect
